Data: patent US20020137929A1, “1 - (3-heterocyclylphenyl) isothiourea, -isourea, -guanidine and -amidine herbicidal agents” (Intellectual Property Department, BASF Aktiengesellschaft, priority 1998, published 2002)

Tests used:
[1] = tested on: ABUTH (Velvetleaf); experiment: Preemergence herbicidal evaluation; assay type: in vivo, Abutilon theophrasti; conditions: rated 4-5 weeks after treatment
Summary of the method: (§1)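 Scores use a 0–9 visual scale covering stand, vigor, malformation, size and chlorosis relative to controls, rated four to five weeks after treatment. Before emergence, soil-planted seeds were sprayed with compound in aqueous acetone at roughly 0.0156–0.500 kg/ha and held in the greenhouse.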

[2] = tested on: TRZAWR (Wheat, Winter, cv Riband); experiment: Preemergence herbicidal evaluation; assay type: in vivo, Triticum aestivum; conditions: rated 4-5 weeks after treatment
Summary of the method: as §1

[3] = tested on: ECHORC (Watergrass (Calif.)); experiment: Preemergence weed control under flooded paddy conditions; assay type: in vivo, Echinochloa oryzoides; conditions: rated 3-4 weeks after treatment
Summary of the method: (§2)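 Herbicidal effect is scored visually on a 0-9 scale against an untreated control, three to four weeks after compounds are pipetted into the flood water (1.5 to 3 cm deep) over seeds planted in silt loam at 0.5 cm depth. Rates: about 0.0313 to 0.500 kg/ha.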

[4] = tested on: CYPIR (Rice Flatsedge); experiment: as above; assay type: in vivo, Cyperus iria; conditions: rated 3-4 weeks after treatment
Summary of the method: as §2

[5] = tested on: SAGPY (Arrowhead (Pygmaea)); experiment: as above; assay type: in vivo, Sagittaria pygmaea; conditions: rated 3-4 weeks after treatment
Summary of the method: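 Using flooded silt loam (water 1.5 to 3 cm deep), seeds sown in the top 0.5 cm were exposed preemergence to compound pipetted into the flood at about 0.0313 to 0.500 kg/ha. Effects were scored 0-9 by eye three to four weeks later.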

[6] = tested on: MOOVA (Monochoria); experiment: Postemergence weed control under flooded paddy conditions; assay type: in vivo, Monochoria vaginalis; conditions: postemergence weeds
Summary of the method: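 Flood-water application, about 0.0313–0.500 kg/ha a.i. in aqueous/acetone 50/50 v/v; water depth 1.5–3 cm throughout. Weeds 3–5 cm, rice 1.5–2.5 leaf. Greenhouse; 0–9 visual rating vs control at 3–4 wk.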

[7] = Rate 0.0313 kg/ha, rated 3 to 4 weeks after treatment
[8] = Rate 0.0625 kg/ha, rated 3 to 4 weeks after treatment
[9] = Rate 0.1250 kg/ha, rated 3 to 4 weeks after treatment
[10] = Rate 0.2500 kg/ha, rated 3 to 4 weeks after treatment

SMILES | Preemergence herbicidal rating ABUTH ([1]; rate 0.0156 kg/ha) | Preemergence herbicidal rating ABUTH ([1]; rate 0.0313 kg/ha) | Preemergence herbicidal rating ABUTH ([1]; rate 0.0625 kg/ha) | Preemergence herbicidal rating ABUTH ([1]; rate 0.1250 kg/ha) | Preemergence herbicidal rating ABUTH ([1]; rate 0.2500 kg/ha) | Preemergence herbicidal rating TRZAWR ([2]; rate 0.0156 kg/ha) | Preemergence herbicidal rating TRZAWR ([2]; rate 0.0313 kg/ha) | Preemergence herbicidal rating TRZAWR ([2]; rate 0.0625 kg/ha) | Preemergence herbicidal rating TRZAWR ([2]; rate 0.1250 kg/ha) | Preemergence herbicidal rating TRZAWR ([2]; rate 0.2500 kg/ha) | ECHORC herbicidal effect rating ([3]; 0.0313 kg/ha) | ECHORC herbicidal effect rating ([3]; 0.0625 kg/ha) | ECHORC herbicidal effect rating ([3]; 0.1250 kg/ha) | ECHORC herbicidal effect rating ([3]; 0.2500 kg/ha) | CYPIR herbicidal effect rating ([4]; 0.0313 kg/ha) | CYPIR herbicidal effect rating ([4]; 0.0625 kg/ha) | CYPIR herbicidal effect rating ([4]; 0.1250 kg/ha) | CYPIR herbicidal effect rating ([4]; 0.2500 kg/ha) | SAGPY herbicidal effect rating ([5]; 0.0313 kg/ha) | SAGPY herbicidal effect rating ([5]; 0.0625 kg/ha) | other results
CCOC(=O)CN1C(=O)C(CC(=O)OC)S/C1=N/c1cc(-n2c(=O)cc(C(F)(F)F)n(C)c2=O)c(F)cc1Cl (stereo not shown) [Compound 54, 2-{{2-Chloro-5-[3,6-dihydro-3-methyl-2,6-dioxo-4-(trifluoromethyl)-1(2H)-pyrimidinyl]-4-fluorophenyl}imino}-4-oxo-3,5-thiazolidinediacetic acid, 3-ethyl methyl ester] | 4.5 | 7.5 | 9.0 | 9.0 | 9.0 | 0.0 | 0.0 | 0.0 | 1.0 | 3.0 |  |  |  |  |  |  |  |  |  |  | Preemergence herbicidal rating ABUTH ([1]; rate 0.5000 kg/ha): 9.0; Herbicidal rating ECHORC ([3]; 0.0313 kg/ha): 5.0; Herbicidal rating ECHORC ([3]; 0.0625 kg/ha): 5.0; Herbicidal rating ECHORC ([3]; 0.1250 kg/ha): 7.0; Herbicidal rating ECHORC ([3]; 0.2500 kg/ha): 9.0; Herbicidal rating CYPIR ([4]; 0.0313 kg/ha): 0.0; Herbicidal rating CYPIR ([4]; 0.0625 kg/ha): 4.0; Herbicidal rating CYPIR ([4]; 0.1250 kg/ha): 4.0; Herbicidal rating CYPIR ([4]; 0.2500 kg/ha): 4.0; Herbicidal rating SAGPY ([5]; 0.0313 kg/ha): 0.0; Herbicidal rating SAGPY ([5]; 0.0625 kg/ha): 0.0; Herbicidal rating SAGPY ([5]; 0.1250 kg/ha): 0.0; Herbicidal rating SAGPY ([5]; 0.2500 kg/ha): 2.0; Herbicidal rating MOOVA ([6]; rate 0.0313 kg/ha, 3-4 weeks after treatment): 0.0; Herbicidal rating MOOVA ([6]; rate 0.0625 kg/ha, 3-4 weeks after treatment): 0.0; Herbicidal rating MOOVA ([6]; rate 0.1250 kg/ha, 3-4 weeks after treatment): 6.0; Herbicidal rating MOOVA ([6]; rate 0.2500 kg/ha, 3-4 weeks after treatment): 6.0
C=CCN1C(=O)C(CC(=O)OC)SC1=Nc1cc(-n2c(=O)cc(C(F)(F)F)n(C)c2=O)c(F)cc1Cl (stereo not shown) [Compound 64, Methyl 3-allyl-2-{{2-chloro-5-[3,6-dihydro-3-methyl-2,6-dioxo-4-(trifluoromethyl)-1(2H)-pyrimidinyl]-4-fluorophenyl}imino}-4-oxo-5-thiazolidineacetate] | 1.0 | 9.0 | 9.0 | 9.0 | 9.0 | 0.0 | 0.0 | 1.0 | 1.0 | 3.0 | 5.0 | 6.0 | 6.0 | 9.0 | 0.0 | 2.0 | 2.0 | 7.0 | 0.0 | 3.0 | SAGPY herbicidal effect rating ([5]; 0.1250 kg/ha): 5.0; SAGPY herbicidal effect rating ([5]; 0.2500 kg/ha): 8.0; Herbicidal rating MOOVA [6, 7]: 7.0; Herbicidal rating MOOVA [6, 8]: 9.0; Herbicidal rating MOOVA [6, 9]: 9.0; Herbicidal rating MOOVA [6, 10]: 9.0
C=CCOC(=O)CC1SC(=Nc2cc(-n3c(=O)cc(C(F)(F)F)n(C)c3=O)c(F)cc2Cl)N(CC=C)C1=O (stereo not shown) [Compound 65, Allyl 3-allyl-2-{(2-chloro-5-[3,6-dihydro-3-methyl-2,6-dioxo-4-(trifluoromethyl)-1(2H)-pyrimidinyl]-4-fluorophenyl}imino}-4-oxo-5-thiazolidineacetate] | 2.0 | 9.0 | 9.0 | 9.0 | 9.0 |  | 0.0 | 1.0 | 1.0 | 3.0 | 5.0 | 5.0 | 6.0 | 7.0 | 6.0 | 7.0 | 7.0 | 8.0 | 2.0 | 4.0 | SAGPY herbicidal effect rating ([5]; 0.1250 kg/ha): 5.0; SAGPY herbicidal effect rating ([5]; 0.2500 kg/ha): 7.0; Herbicidal rating MOOVA [6, 7]: 9.0; Herbicidal rating MOOVA [6, 8]: 9.0; Herbicidal rating MOOVA [6, 9]: 9.0; Herbicidal rating MOOVA [6, 10]: 9.0
C#CCOC(=O)CC1SC(=Nc2cc(-n3c(=O)cc(C(F)(F)F)n(C)c3=O)c(F)cc2Cl)N(CC=C)C1=O (stereo not shown) [Compound 67, 2-Propynyl 3-allyl-2-{{2-chloro-5-[3,6-dihydro-3-methyl-2,6-dioxo-4-(trifluoromethyl)-1(2H)-pyrimidinyl]-4-fluorophenyl}imino}-4-oxo-5-thiazolidineacetate] | 1.0 | 9.0 | 9.0 | 7.0 | 9.0 | 0.0 | 0.0 | 0.0 | 1.0 | 1.0 | 0.0 | 4.0 | 5.0 | 5.0 | 5.0 | 5.0 | 5.0 | 8.0 | 0.0 | 4.0 | SAGPY herbicidal effect rating ([5]; 0.1250 kg/ha): 4.0; SAGPY herbicidal effect rating ([5]; 0.2500 kg/ha): 6.0; Herbicidal rating MOOVA [6, 7]: 9.0; Herbicidal rating MOOVA [6, 8]: 9.0; Herbicidal rating MOOVA [6, 9]: 9.0; Herbicidal rating MOOVA [6, 10]: 9.0
CCOC(=O)CN1C(=O)C(CC(=O)Nc2ccccc2)SC1=Nc1cc(-n2c(=O)cc(C(F)(F)F)n(C)c2=O)c(F)cc1Cl (stereo not shown) [Compound 68, Ethyl 2-{{2-chloro-5-[3,6-dihydro-3-methyl-2,6-dioxo-4-(trifluoromethyl)-1(2H)-pyrimidinyl]-4-fluorophenyl}imino}-4-oxo-5-[(phenylcarbamoyl)-methyl]-3-thiazolidineacetate] | 0.0 | 1.0 | 1.0 | 5.0 | 9.0 | 0.0 | 0.0 | 0.0 | 0.0 | 1.0 | 0.0 | 5.0 | 7.0 | 7.0 | 0.0 | 0.0 | 5.0 | 8.0 | 0.0 | 0.0 | SAGPY herbicidal effect rating ([5]; 0.1250 kg/ha): 0.0; SAGPY herbicidal effect rating ([5]; 0.2500 kg/ha): 3.0; Herbicidal rating MOOVA [6, 7]: 3.0; Herbicidal rating MOOVA [6, 8]: 9.0; Herbicidal rating MOOVA [6, 9]: 9.0; Herbicidal rating MOOVA [6, 10]: 9.0
